Experimental data: patent publication US10945971B2, “Sphingosine kinase type 1 inhibitors and uses thereof” (Enzo Therapeutics, Inc., priority 2008, dated 2021)

Experiments:
LN229 cells = type: cell-based; conditions: LN229, combined with SK1-I
Protocol: (§1) Cells were plated at 10,000 cells/well in 48-well plates and allowed to attach for 24 h. Cell proliferation was measured at the indicated times with WST-1 and absorbance was measured in a plate reader at 450 nm with background subtraction at 630 nm. Cell death was detected by trypan blue exclusion assays in which the percent of blue dye incorporating cells were determined using a light microscope and a hemacytometer as described (Yacoub et al. Mol Cancer Ther 7:314-329, 2008). Apoptotic cell death was measured by staining cell nuclei with the Hoechst dye bisbenzimide and apoptotic cells were identified by condensed, fragmented nuclear regions as described previously (Sankala et al. Cancer Res 67:10466-10474, 2007). A minimum of 300 cells was scored.

U373 cells = test: Modulation of SK1-I lethality by signaling inhibitors, U373 cells; type: cell-based, human; conditions: U373, combined with SK1-I
Protocol: as §1

| Structure (SMILES) | effect on SK1-I lethality (LN229 cells) | effect on SK1-I lethality (U373 cells) |
| --- | --- | --- |
| Oc1ccc(-c2nc(-c3ccncc3)c(-c3ccc(F)cc3)[nH]2)cc1 [SB202190] | enhanced | enhanced |
| N#CC(=C(/N)Sc1ccccc1N)/C(C#N)=C(\N)Sc1ccccc1N [U0126] | enhanced | enhanced |
